# US7476729B2, “Dbait and uses thereof” (Institut Curie, priority 2003, dated 2009)
# Tests used:
# GMA32 cells = experiment: Clonogenicity (clonal survival) assay in GMA32 cells with irradiation or mitotic inhibitors; format: cell-based, Chinese hamster
# Protocol: The GMA32 Chinese hamster fibroblast cells permissive of DNA breaks were maintained in MEM medium (Gibco) supplemented with 1 mM sodium pyruvate, 2 mM glutamine, 1×MEM non essential amino acids, 1× penicillin/streptomycin and 10% horse serum. Typically, 2×10^5 to 4×10^5 cells were seeded in medium without antibiotics, in 5 cm diameter Petri dishes 24 hours before the transfection of different Dbait molecules (4.5 μg) with lipofectamine 2000 (LifeTechnologies) as transfection agent (in a 1:3 ratio), according to the manufacturer's instructions. At the end of the transfection the cells were either irradiated (4 Gy) or treated with mitotic inhibitors: nocodazole (200 nM), navelbine (100 nM) or taxol (200 nM).
# About 16 hour later the drug was removed and the cells were allowed to recover. Cell irradiation was performed with γ-rays from a ^137Cs source. After a 24 hours recovery, the cells were collected and used either for FACS, western blot analyses or to determine the clonogenicity (survival) and the effect of each treatment.
# The effect of radiosensitization and chemosensitization of Dbait molecules in GMA32 cells was evaluated by clonogenicity (clonal survival) assay. For the clonogenicity assay, serial dilutions were made after counting the cells to seed 5 cm Petri dishes with different amounts of cells. The number of cells range from 100-200 (control cells) to 3000 (transfected or/and treated cells). Ten days after, the cells (forming clone) were fixed with 4% paraformaldehyde (20 minutes), then colored with methylene blue (15 minutes), and the number of clone in each plate (in triplicates) was scored.
# These drugs are known as potent inhibitors of either polymerization or depolymerization of microtubules. Dbait32 (SEQ ID NO: 1) and Dait32H (SEQ ID NO: 1) were able to enhance to cytotoxic activity of these mitotic inhibitors.
# γ-H2AX in Hep2 cells = experiment: Kinetics of persistence of DSB sites (γ-H2AX) by FACS in irradiated Hep2 cells; format: cell-based, human; details: Hep2, 10 Gy, 0 min to 7 days
# Protocol: To investigate the effect of Dbait on ionizing radiation-induced g-H2AX foci formation and loss, Dbait32H-Cy3 (SEQ ID NO: 1) were transfected in the Hep2 cells by superfect (Qiagen). Transfected or untransfected Hep2 cells were irradiated at 10 Gy. Cells were fixed at different times (0 min, 30 min, 1 hour, 5 hours, 24 hours, 48 hours, 72 hours and 7 days). Primary mouse monoclonal antibody for g-H2AX (ser139) (Upstate, Tempcula, Calif., USA) was used in 1/500 dilution and incubated for 2 hours at 0° C., then washed by PBS buffer and incubated with Alexa 488-conjugated second antibody anti mouse IgG (Molecular Probe, Eugene, Oreg., USA) diluted in 1/200 for 1 hour in dark room.
substance,measurement,setting,value
"Dbait32H: hairpin double strand DNA with a stem of 32-bp, hexaethyleneglycol linker, phosphorothioate at the free blunt end (DNA ACGCACGGGTGTTGGGTCGTTTGTTCGGATCT; DNA, backbone not given here; hairpin, hexaethyleneglycol loop, 3-bp phosphorothioate at free blunt end)",chemosensitization (clonal survival),"GMA32 cells; GMA32, 200 nM nocodazole, 100 nM navelbine (vinorelbine) or 200 nM taxol (paclitaxel)",chemosensitization was also observed
same,radiosensitization (clonal survival),"GMA32 cells; GMA32, 4 Gy irradiation",radiosensitization to 4 Gy irradiation was observed
same,level of γ-H2AX over time (FACS),γ-H2AX in Hep2 cells,remained high and long
